Measured values from the NIST ThermoML archive (doi:10.1016/j.jct.2005.02.003).

Assay: molar heat capacity at constant pressure
Conditions: 101.33 kPa

CC(C)COC(C)(C)C [isobutyl tert-butyl ether]
molar heat capacity at constant pressure [J/K/mol]
Conditions | Crystal | Liquid
140.78 K | 140.8 | –
141.71 K | 142 | –
142.63 K | 142.5 | –
143.56 K | 143.4 | –
144.49 K | 143.5 | –
145.41 K | 144.2 | –
146.33 K | 144.7 | –
147.24 K | 145.3 | –
149.06 K | 146.4 | –
149.71 K | – | 210
150 K | 147.3 | –
150.86 K | 147.4 | –
151.76 K | 148.4 | –
151.77 K | – | 210.7
152.66 K | 149 | –
153.55 K | 149.9 | –
153.82 K | – | 211.9
155.87 K | – | 212.5
156.22 K | 153.2 | –
157.08 K | 153.7 | –
157.9 K | – | 213.3
157.95 K | 155.8 | –
159.92 K | – | 214
160 K | 152.6 | –
161.93 K | – | 214.7
162.33 K | 153.6 | 214.8
163.93 K | – | 215.4
165.92 K | – | 216.2
167.9 K | – | 216.8
169.88 K | – | 217.5
170 K | – | 217.7
171.84 K | – | 218.3
173.8 K | – | 219.3
175.75 K | – | 220.1
177.69 K | – | 220.3
179.63 K | – | 221.1
180 K | – | 221.4
181.56 K | – | 221.9
183.49 K | – | 222.7
185.4 K | – | 223.2
187.31 K | – | 224.1
189.21 K | – | 224.7
190 K | – | 225
191.11 K | – | 225.4
193 K | – | 226
194.89 K | – | 226.8
196.77 K | – | 227.4
198.65 K | – | 227.8
200 K | – | 228.5
200.52 K | – | 228.5
201.82 K | – | 229.6
202.53 K | – | 229.1
203.25 K | – | 229.2
203.96 K | – | 229.6
204.67 K | – | 230.4
205.41 K | – | 230.1
206.12 K | – | 230.8
206.84 K | – | 231.4
207.55 K | – | 231.1
208.27 K | – | 231.1
208.98 K | – | 232.1
209.69 K | – | 232
210 K | – | 232.1
210.4 K | – | 232.3
211.12 K | – | 232.6
211.83 K | – | 233
212.55 K | – | 233.1
213.26 K | – | 233.6
213.97 K | – | 233.7
214.69 K | – | 233.6
215.4 K | – | 234.1
216.12 K | – | 234.1
216.87 K | – | 233.8
217.59 K | – | 234.2
218.3 K | – | 234.6
219.02 K | – | 235.9
219.73 K | – | 236
220 K | – | 235.8
220.45 K | – | 236.2
221.17 K | – | 236
221.89 K | – | 237
222.6 K | – | 237
223.33 K | – | 236.7
224.04 K | – | 237.6
224.76 K | – | 237.8
225.48 K | – | 237.8
226.2 K | – | 238
226.92 K | – | 238.6
227.65 K | – | 238.6
228.42 K | – | 239.6
229.14 K | – | 239.3
229.86 K | – | 239.6
230 K | – | 239.7
230.59 K | – | 239.5
231.31 K | – | 240.6
232.04 K | – | 240.4
233.48 K | – | 240.4
234.2 K | – | 240.9
235.65 K | – | 242
236.37 K | – | 242.7
237.1 K | – | 242.3
237.82 K | – | 242.2
238.55 K | – | 243.6
239.27 K | – | 243.4
240 K | – | 243.7
240.05 K | – | 243.3
240.77 K | – | 243.8
241.5 K | – | 243.9
242.22 K | – | 244.6
242.94 K | – | 245.2
243.67 K | – | 244.9
244.39 K | – | 244.9
245.12 K | – | 245.9
246.57 K | – | 247
247.3 K | – | 245.8
248.03 K | – | 247
248.76 K | – | 247.9
249.49 K | – | 247.9
250 K | – | 247.9
250.22 K | – | 248.3
251.77 K | – | 248
252.51 K | – | 248.4
253.24 K | – | 249
253.98 K | – | 249.8
254.72 K | – | 250.5
255.46 K | – | 250.1
256.2 K | – | 251
256.95 K | – | 251.3
257.7 K | – | 250.7
258.45 K | – | 251.2
259.2 K | – | 251.6
259.95 K | – | 252.5
260 K | – | 252.2
260.71 K | – | 252.3
261.46 K | – | 252.8
262.22 K | – | 253.6
263.85 K | – | 253.7
264.62 K | – | 254.4
265.39 K | – | 254.4
266.16 K | – | 255.3
266.93 K | – | 255.3
267.7 K | – | 255.9
268.48 K | – | 256.3
269.26 K | – | 256.4
270 K | – | 256.6
270.82 K | – | 256.8
273.2 K | – | 258
274 K | – | 258.2
274.8 K | – | 258.2
275.61 K | – | 258.9
276.58 K | – | 259.7
277.39 K | – | 259.4
279.03 K | – | 261.1
279.86 K | – | 261.4
280 K | – | 260.9
280.69 K | – | 261
282.66 K | – | 262.3
283.22 K | – | 262.3
284.18 K | – | 262.8
284.95 K | – | 263.7
285.74 K | – | 263.4
287.3 K | – | 264
287.56 K | – | 264.4
288.43 K | – | 264.7
288.86 K | – | 264.2
290 K | – | 265.2
290.42 K | – | 264.9
290.43 K | – | 265.6
291.99 K | – | 265.5
295.17 K | – | 266.9
298.15 K | – | 268.7
298.38 K | – | 268.5
299.98 K | – | 269.1
300 K | – | 269.6
301.59 K | – | 269.8
303.21 K | – | 270.6
304.86 K | – | 271.6
306.49 K | – | 272.2
308.3 K | – | 273.1
309.95 K | – | 274
310 K | – | 274
311.6 K | – | 274.4
313.27 K | – | 275.7
314.92 K | – | 276.5
316.58 K | – | 277.2
318.24 K | – | 278.5
319.91 K | – | 278.9
320 K | – | 278.7
321.57 K | – | 279.3
323.26 K | – | 280.8
324.94 K | – | 281.6
326.61 K | – | 282.4
328.29 K | – | 283.1
329.99 K | – | 283.8
330 K | – | 283.7
331.66 K | – | 284.7
333.33 K | – | 285.5
335.19 K | – | 285.9
336.85 K | – | 286.8
338.51 K | – | 287.9
340 K | – | 289
340.16 K | – | 289
341.81 K | – | 290
343.47 K | – | 291.2
345.13 K | – | 291.6
346.78 K | – | 292.3
348.44 K | – | 293
350 K | – | 294.5
350.08 K | – | 294.6
351.76 K | – | 295.7
353.42 K | – | 296.9
